pIC50: −log10 of the molar value. Counter-ions that a name gives are not always drawn.
The molecules below were run against Genome polyprotein (West Nile virus, UniProt P06935) (assay: inhibitors of WNV NS2B-NS3 protease, dose response, biochemical, confirmation (AID 653)).
Sequence of Genome polyprotein (P06935 1371-1501 limits assumed): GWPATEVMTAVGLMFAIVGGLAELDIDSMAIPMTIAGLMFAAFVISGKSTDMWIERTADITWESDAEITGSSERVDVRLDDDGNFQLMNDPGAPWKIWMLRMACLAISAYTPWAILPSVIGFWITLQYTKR
Sequence of Genome polyprotein (P06935 1502-2120 limits assumed): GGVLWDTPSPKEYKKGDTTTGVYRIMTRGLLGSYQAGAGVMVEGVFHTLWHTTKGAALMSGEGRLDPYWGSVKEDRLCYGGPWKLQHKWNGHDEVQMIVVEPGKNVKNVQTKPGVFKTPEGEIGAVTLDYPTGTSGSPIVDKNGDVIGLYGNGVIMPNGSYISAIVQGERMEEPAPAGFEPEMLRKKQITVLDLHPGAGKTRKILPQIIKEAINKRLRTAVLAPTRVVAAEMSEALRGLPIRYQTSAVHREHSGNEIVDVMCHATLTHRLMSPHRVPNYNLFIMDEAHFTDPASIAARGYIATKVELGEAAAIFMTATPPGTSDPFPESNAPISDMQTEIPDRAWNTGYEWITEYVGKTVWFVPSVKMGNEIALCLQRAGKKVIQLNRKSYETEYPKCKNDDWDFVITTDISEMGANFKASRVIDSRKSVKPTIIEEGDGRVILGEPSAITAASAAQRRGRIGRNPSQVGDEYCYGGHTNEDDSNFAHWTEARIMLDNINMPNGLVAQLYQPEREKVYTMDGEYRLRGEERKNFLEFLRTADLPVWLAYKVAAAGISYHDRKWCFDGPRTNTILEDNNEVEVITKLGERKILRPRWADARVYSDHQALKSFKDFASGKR
In the case of `CCS(=O)(=O)N1Cc2ccccc2CC1C(=O)N1CCN(c2cccc(C)c2C)CC1` (stereo not given) [MLS000053522], the pIC50 was 4.41. For `CCN(CC(=O)Nc1ccccc1OC)C(=O)C1CC2C=CC1C2` (stereo not given) [MLS000053693], the pIC50 was under 4.30. Work on `Cc1sc2nc3c4ccccc4c(NCc4ccco4)nn3c(=O)c2c1C` [MLS000056809] yielded a pIC50 of under 4.30. With `CCN(Cc1ccccc1)C(=O)c1ccccc1C` [MLS000058902] the pIC50 was under 4.30. With `Cn1nnc2cc(C(=O)NC3CCCCC3)ccc21` [MLS000063766] the pIC50 was under 4.30. In the case of `Nc1ccc(S(=O)(=O)Nc2ccccn2)cc1` [MLS000069725], the pIC50 was under 4.30. With `COc1ccc(OC)c(NS(=O)(=O)c2cccs2)c1` [MLS000070319] the pIC50 was under 4.30. Molecule `COc1ccc2nc(NC(=O)CSc3nc4cccnc4n3C)sc2c1` [MLS000072990] has a pIC50 of under 4.30. `CCCn1c(SCC(=O)Nc2ccc3c(c2)OCCO3)nnc1-c1ccco1` [MLS000073448] showed a pIC50 of under 4.30. For `COC(=O)c1[nH]c2cc(OC)ccc2c1NC(=O)c1ccc2c(c1)OCO2` [MLS000081144], the pIC50 was under 4.30. `CCN1CCN(CNC(=O)c2cnccn2)CC1` [MLS000082173] showed a pIC50 of under 4.30. With `O=S(=O)(c1ccc(F)cc1)N(CCO)CC(O)Cn1c2ccccc2c2ccccc21` (stereo not given) [MLS000088265] the pIC50 was under 4.30. For `Cc1ccc(Cl)cc1NC(=O)c1ocnc1C` [MLS000092879], the pIC50 was under 4.30. `COc1ccc(N2CCN(C(CNC(=O)Oc3ccccc3)c3cccnc3)CC2)cc1` (stereo not given) [MLS000094397] gave a pIC50 of under 4.30. With `CC(C)CCN1CC(C(=O)NCc2ccc(F)cc2)CC1=O` (stereo not given) [MLS000096189] the pIC50 was under 4.30. `COc1ccc(C(=O)c2oc3ccc(Br)cc3c2NC(C)=O)cc1` [MLS000115316] was tested, and the pIC50 was under 4.30. `Cc1ccc(NC(=O)C2C3CC4OC(=O)C2C4C3)cc1Cl` (stereo not given) [N-(3-chloro-4-methylphenyl)-5-oxo-4-oxatricyclo[4.2.1.0~3,7~]nonane-9-carboxamide] gave a pIC50 of under 4.30. `CCN1CCN(C(=O)N[C@@H](C(=O)N[C@@H]2C(=O)N3[C@@H]2SC(C)(C)[C@@H]3C(=O)O)c2ccccc2)C(=O)C1=O` [PIPERACILLIN SODIUM SALT] was tested, and the pIC50 was under 4.30. With `O=C(OC1CCCCC1)c1ccc2c(c1)C1C=CCC1C(C(=O)O)N2` (stereo not given) [SMR000019385] the pIC50 was under 4.30. `Nc1cc(OC(=O)c2cccs2)nn1S(=O)(=O)c1ccccc1` [SMR000021562] gave a pIC50 of 5.62. With `OCCNC1=NCCN1` [SMR000038385] the pIC50 was under 4.30. For `NC(=O)NC1CCCc2c1[nH]c1ccc(Cl)cc21` (stereo not given) [SMR000091683], the pIC50 was under 4.30. `Cc1cc(OC(=O)c2ccccc2)n(CCC#N)n1` [[2-(2-cyanoethyl)-5-methyl-pyrazol-3-yl] benzoate] gave a pIC50 of 5.87. `Nc1ncnc2c1ncn2[C@@H]1O[C@H](CO)[C@@H](O)[C@H]1O` [[U-14C]adenosine] gave a pIC50 of under 4.30. `COC(=O)CSC1=NC2=C(C(=O)CCC2)C(c2ccc(C)cc2)C1C#N` (stereo not given) [methyl 2-[[3-cyano-4-(4-methylphenyl)-5-oxo-4,6,7,8-tetrahydro-1H-quinolin-2-yl]sulfanyl]acetate] gave a pIC50 of under 4.30.

Reference: BindingDB's records for doi:10.7270/Q2222S6W (University of Pittsburgh, 2007)
